# Results reported in patent publication US20240327425A1, “KRAS G12D INHIBITOR AND USE THEREOF” (SHANGHAI DE NOVO PHARMATECH CO., LTD., priority 2021, published 2024).
# Legend:
# [1] = tested on: GP2D human colon cancer cells subcutaneous xenograft tumor; assay: In vivo pharmacodynamic experiment of subcutaneous xenograft tumor model in mice of GP2D human colon cancer cells; conditions: BALB/c nude mice; for Tumor volume (11 days, mm^3): 11 days (at grouping)
# Experimental: Cell culture: GP2D human colon cancer cells were maintained in monolayer culture in DMEM culture medium containing 10% fetal bovine serum in a constant temperature incubator containing 5% CO2 at 37° C. Tumor cells were passaged twice a week. Cells in the exponential growth phase were harvested and counted for inoculation.
# Experimental animals: BALB/c nude mice, 6 to 8 weeks, 18 to 22 g, purchased from Jiangsu GemPharmatech Co. Ltd.
# Experimental method: GP2D cell line ([…]) was inoculated subcutaneously on the right back of experimental mice. The inoculation volume of each mouse was 0.1 mL. The growth of the tumor was observed regularly. When the tumor grew to about 150 mm^3, the mice were randomly grouped according to the tumor size and body weight, and the drug was administrated according to the administration plan shown in Table 1. The body weight and tumor size were measured twice a week throughout the experiment.
# tumor volume (mm^3)=0.5×(tumor long diameter×tumor short diameter^2). Tumor size calculation formula: […]
# [2] = tested on: phosphorylation level of ERK1/2 in ASPC-1 human pancreatic cancer cells; assay: pERK cell level assay (PHOSPHO-ERK1/2 HTRF kit); format: cell-based; conditions: Homo sapiens, ASPC1, pERK1/2 (THR202/TYR204), Aspc-1 cells, 4 hours incubation
# Experimental: In this experiment, the phosphorylation level of ERK1/2 in AGS human gastric cancer cells or ASPC-1 human pancreatic cancer cells was detected using PHOSPHO-ERK1/2 (THR202/TYR 204) (Cisibo, 64ERKPEH) kit, and the inhibitory effect of the compounds on KRAS G12D was investigated based on the phosphorylation level of ERK1/2.
# On day 1, the density of AGS cell (ATCC) suspension was adjusted to 2.1×10^5 cells/mL, then the suspension was spread in a 96-well plate at 95 μL/well so that there were 2×10^4 cells per well, and the cell culture plate was incubated in a 37° C., 5% CO2 incubator for overnight. On day 2, the compound was serially diluted with 100% dimethyl sulfoxide, and then further diluted with a complete culture medium (RPMI-1640+10% FBS+1% PS) to make a working solution of the compound, which was added to a 96-well cell culture plate at 5 μL/well, and incubated in a 37° C., 5% CO2 incubator for 4 hours. After the incubation was completed, the culture medium was discarded, then 1× lysis buffer was added thereto at 50 μL/well, and the plate was shaken at room temperature for 30 minutes. 16 μL of lysis buffer was added to a white 384-well shallow well plate, then 4 μL of pre-formulated antibody mixture was added thereto, and the plate was sealed with microplate sealer and incubated at room temperature for overnight. On day 3, detection was performed on a TECAN M1000 Pro microplate reader using the HTRF setting, and the IC50 value of the compound was calculated.
# [3] = molecular target: Human KRAS G12D His-tagged protein (Homo sapiens (Human), UniProt P01116, G12D); assay: KRAS G12D binding assay (TR-FRET); conditions: GDP 20 nM, GTP-Red
# Experimental: The binding ability of the compound to KRAS G12D protein was detected by TR-FRET method, and the inhibitory activity of the compound on KRAS G12D protein was evaluated. Human KRAS G12D His-tagged (Cisbio, 63ADK000CB27PEG) protein was 100-fold diluted with PPI Eu detection buffer (Cisbio, 61DB9RBF), then 5 μL of which was added to a 384-well plate and centrifuged at 2000 rpm for 40 seconds. A 10 mM concentrated stock solution of the test compound was prepared with dimethyl sulfoxide, 3-fold serially diluted, then diluted to make a working solution (0.5% DMSO) with PPI Eu detection buffer, added to a 384-well plate at 5 μL/well, with the control group added with 0.5% dimethyl sulfoxide and the highest concentration of the test compound at 10 μM, and centrifuged at 2000 rpm for 40 seconds. An 80 nM GDP standard working solution (Cisbio, 63ADK000CB27PEG) was prepared with PPI Eu detection buffer and added to a 384-well plate at 5 μL/well, with the final concentration of GDP standard working solution at 20 nM. The plate was centrifuged at 2000 rpm for 40 seconds and reacted at room temperature for 30 minutes. 1×6His Eu cryptate antibody and GTP-Red reagent (Cisbio, 63ADK000CB27PEG) were prepared with PPI Eu detection buffer, mixed in a volume ratio of 1:1, 5 μL of which was then added to a 384-well plate, centrifuged at 2000 rpm for 40 seconds, and incubated at room temperature for 30 minutes. The fluorescence intensity at 620 nm and 665 nm was detected by a microplate reader, and the inhibitory activity of the compound on KRAS G12D protein was obtained by fitting a four-parameter equation.
# [4] = tested on: GP2D human colon cancer cells; assay: Cell proliferation assay (Cell Titer-Glo), GP2D; format: cell-based; conditions: Homo sapiens, 72 hours
# Experimental: (§1) On day 1, AGS human gastric cancer cells, ASPC-1 human pancreatic cancer cells, or GP2D human colon cancer cells (Nanjing Cobioer Biosciences Co. Ltd.) in the logarithmic growth phase were taken, digested with an appropriate amount of trypsin, formulated into a single cell suspension using RPMI 1640 (Gibco) medium containing 10% fetal bovine serum and 1% penicillin-streptomycin, counted to adjust the cell density, inoculated in a 96-well plate at 95 μL/well so that there were 3000 cells per well, and then the cell culture plate was incubated in a 37° C., 5% CO2 incubator for overnight. On day 2, a 10 mM concentrated stock solution of KRAS G12D inhibitor was 3-fold serially diluted with dimethyl sulfoxide solution, and then diluted with AGS complete culture medium to make a working solution, which was added to a cell culture plate at 5 μL/well so that the compound had the highest concentration of 10 μM and the lowest concentration of 0.0015 μM, and the control group was 0.5% dimethyl sulfoxide. The cell culture plate was briefly centrifuged and then incubated in a CO2 incubator for 72 hours. On day 5, the cell culture plate was taken out, added with Cell Titer-Glo (Promega) detection reagent in each well, incubated in the dark for 10 minutes, and then luminescence was detected using a microplate reader (Tecan, Infinite M1000 Pro). Data were analyzed using Graphpad software, and curve fitting was performed with four-parameter equation and the IC50 value of the inhibitor was calculated.
# [5] = tested on: ASPC-1 human pancreatic cancer cells; assay: Cell proliferation assay (Cell Titer-Glo), ASPC-1; format: cell-based; conditions: Homo sapiens, ASPC1, Aspc-1, 72 hours
# Experimental: as §1
# Sequence of Human KRAS G12D His-tagged protein (P01116-2 other isoform, or with tags, fused parts or gaps G12D): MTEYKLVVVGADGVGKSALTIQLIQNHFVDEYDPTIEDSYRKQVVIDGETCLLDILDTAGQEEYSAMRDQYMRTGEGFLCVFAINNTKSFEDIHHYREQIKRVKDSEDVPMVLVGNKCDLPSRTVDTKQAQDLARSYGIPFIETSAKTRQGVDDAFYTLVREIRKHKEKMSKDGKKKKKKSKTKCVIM
smiles,measurement,setting,value
"N#Cc1c(N)sc2cccc(-c3c(Cl)c4c5c(nc(OC[C@@]67CCCN6C[C@H](F)C7)nc5c3F)N3C[C@H]5CC[C@H](N5)[C@H]3CO4)c12 (single isomer, unassigned) [Compound I-7-2]","Tumor volume (11 days, mm^3)",[1]; 3 mg/kg i.p. twice a day,140.32 ± 19.74 mm^3
same,"Tumor volume (21 days, mm^3)",[1]; 3 mg/kg i.p. twice a day,80.27 ± 11.38 mm^3
same,T/C (%),[1]; 3 mg/kg i.p. twice a day,18.6%
same,Tumor regression rate (%),[1]; 3 mg/kg i.p. twice a day,−39.9%
same,"Tumor volume (11 days, mm^3)",[1]; 10 mg/kg i.p. twice a day,139.69 ± 17.49 mm^3
same,"Tumor volume (21 days, mm^3)",[1]; 10 mg/kg i.p. twice a day,70.19 ± 11.89 mm^3
same,T/C (%),[1]; 10 mg/kg i.p. twice a day,15.5%
same,Tumor regression rate (%),[1]; 10 mg/kg i.p. twice a day,−49.8%
same,IC50,[2],0.544 nM
same,IC50,[3],2.44 nM
same,IC50,[4],0.095 nM
same,IC50,[5],1.7 nM
